In patent US11673853B2, “Small molecule AMPK activators” (University of Pittsburgh—Of the Commonwealth System of …, priority 2016, dated 2023):

Columns and labels:
Diet-induced obese mice [1] = assay: Hyperinsulinemic euglycemic clamp study; format: in vivo; conditions: BC1618 20 mg/kg twice
Procedure: FIG. 30. Diet-induced obese mice were dosed 1× with vehicle or BC1618 (20 mg/kg) prior to overnight fast, followed by a 1× (20 mg/kg) morning dose prior to hyperinsulinemic euglycemic clamp. Body weight measurements are shown.
FIG. 31. From the same study as in FIG. 30, fasting plasma glucose and glucose infusion rate values are shown.
FIG. 32. From the same study as in FIG. 30, glucose infusion rate values are shown.
Diet-induced obese mice were dosed 1× with vehicle or BC1618 (20 mg/kg) prior to overnight fast, followed by a 1× (20 mg/kg) morning dose prior to hyperinsulinemic euglycemic clamp. […] Plasma glucose levels were matched during the clamp (FIG. 31, upper portion). The glucose infusion rate (GIR) required to maintain euglycemia in the 1618 treated mice was approximately 2-fold greater than VEH treated mice (FIG. 31, lower portion and average over last 40 min in FIG. 32, P<0.001), indicating improved whole-body insulin sensitivity.

[2] = test system: High-fat diet fed C57BL6J mice; assay: Acute oral dosing study in high-fat diet fed mice; format: in vivo
PBMC cells = assay: Cytokine array of LPS-treated PBMC cells; format: cell-based, human; conditions: 5 μM 18 h, then LPS 100 ng/ml 4 h
Procedure: FIG. 10. (A) 50K PBMC cells were cultured in 96 well plates before being exposed to Compound 23 for 18 h. Cells were then treated with LPS (10 ng/ml) for additional 4 h. Media were then collected and TNF and IL-1b concentration were determined by ELISA. (B) PBMC cells (1 mL at 1.0×10^6/ml) were treated with Compound 23 (5 μM) for 18 h. Cells were then treated with 100 ng/ml LPS for 4 h. Cytokine release was monitored by the human cytokine array (R&D systems). The results from a cytokine array dot blot were quantitated and graphed.
Compound 23 was tested in in vitro inflammatory assays. 50K PBMC cells were cultured in 96 well plates before being exposed to Compound 23 for 18 h. Cells were then treated with LPS (10 ng/ml) for additional 4 h. Media were then collected and assayed for TNF and IL-1b. […] Cytokine arrays were used to profile which cyotokine/chemokines were regulated by Compound 23.

Diet-induced obese mice [3] = assay: Diet-induced obese mice study, 14 days dosing; format: in vivo; conditions: once daily for 14 days; BC1618 8 or 40 mg/kg/d
Procedure: FIG. 12. Diet-induced obese mice were fed a high-fat diet for 19 weeks and then injected with vehicle or drug once daily for 14 days. Daily body weights (in grams) of the mice are shown.
Diet-induced obese mice arrived from Jackson Labs and recovered two weeks in satellite housing before study. Mice were 25 weeks old and fed a high-fat diet for 19 weeks at the time of study. Body weight, fat and lean mass were measured and mice were grouped in order to match body weights at ˜46.5 g average per group prior to study. Following the acute dosing trial, mice were injected with vehicle or drug 1× daily between noon and 2 pm for 14 days (BC1618-L (low dose)=8 mg/kg/d, BC1618-H (high dose)=40 mg/kg/d). Body weight was recorded daily (FIGS. 12-15). FIG. 12 and FIG. 13 show body weight in grams and FIG. 14 and FIG. 15 show body weight as a percentage of body weight on day 0 (DO).
FIGS. 16-19 show the change (A) in body weight (BW) from day 0 to day 14 expressed as change in grams (FIG. 16 and FIG. 17) or as percent change from day 0 (FIG. 18 and FIG. 19).
Body composition was measured at DO in the body weight matched animals and again at day 14 (D14). Data in FIGS. 20-23 represent the change in fat mass from DO to D14 expressed as grams (FIG. 20 and FIG. 21) or as percent change (FIG. 22 and FIG. 23).
Data in FIGS. 24-27 represent the change in lean mass from DO to D14 expressed as grams (FIG. 24 and FIG. 25) and as percent change (FIG. 26 and FIG. 27). Overall there appears to be a modest effect of vehicle and drug to reduce lean mass over 14 days, but no differences between groups. Changes in BW over 14 days therefore reflect changes in fat mass and not lean mass.

SMILES: OC(COc1ccc(C(F)(F)F)cc1)CN(Cc1ccccc1)Cc1ccccc1 (stereo not shown) [Compound 23]
- body weight prior to clamp (Diet-induced obese mice [1]): no difference in body weight
- glucose infusion rate (GIR) required to maintain euglycemia, relative to VEH treated mice (Diet-induced obese mice [1]; P<0.001): approximately 2 fold
- fasting plasma glucose (Diet-induced obese mice [1]; before clamp, vehicle 111±3, P=0.12): 100 ± 6 mg/dL
- glucose tolerance (intraperitoneal glucose tolerance test) ([2]; 1 g/kg body weight glucose, data not shown): no difference in glucose tolerance
- body weight at the time of study ([2]; two oral doses (AICAR 200 mg/kg, BC1618 20 mg/kg)): no differences in body weight
- reduction of fasting plasma glucose compared to vehicle ([2]; two oral doses (AICAR 200 mg/kg, BC1618 20 mg/kg), 2 h after second dose, P=0.08): 25%
- cytokines/chemokines regulated (cytokine array) (PBMC cells): decreases CD40, GMCSF, IL-1b, IL-1ra, IL-2, IL-12, IL-13, ITAC and TNF
- body weight loss (daily body weight) (Diet-induced obese mice [3]): effect of AICAR and BC1618 on body weight loss
- change in body weight from day 0 to day 14 (Diet-induced obese mice [3]): an effect due to AICAR or BC1618
- change in fat mass from D0 to D14 (Diet-induced obese mice [3]): apparent additive effect
